Source: ChEMBL document CHEMBL1201862, “PubChem BioAssay data set” (2004)
Calls of active or inactive are those of the source.

Tests used:
[1] = target: Glucose-6-phosphate 1-dehydrogenase (Homo sapiens, UniProt P11413); experiment: human G6PD enzyme inhibitors, dose response, selectivity assay for P. falciparum G6PD inhibitor project, biochemical, fluorescence (AID 504792); type: functional
[2] = target: T1, Heat shock factor protein 1 (Mus musculus, UniProt P38532); experiment: inhibition of MG132-induced HSE-luciferase signal, confirmation, cell-based, NIH3T3, luminescence, dose retest (AID 2382); type: functional;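 also: NIH3T3 fibroblasts with HSF1-driven luciferase reporter stressed by proteasome inhibitor MG132; luminescence from HSF1-driven luciferase expression after 8 hours of MG132 stress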
T1 sequence (P38532 whole entry): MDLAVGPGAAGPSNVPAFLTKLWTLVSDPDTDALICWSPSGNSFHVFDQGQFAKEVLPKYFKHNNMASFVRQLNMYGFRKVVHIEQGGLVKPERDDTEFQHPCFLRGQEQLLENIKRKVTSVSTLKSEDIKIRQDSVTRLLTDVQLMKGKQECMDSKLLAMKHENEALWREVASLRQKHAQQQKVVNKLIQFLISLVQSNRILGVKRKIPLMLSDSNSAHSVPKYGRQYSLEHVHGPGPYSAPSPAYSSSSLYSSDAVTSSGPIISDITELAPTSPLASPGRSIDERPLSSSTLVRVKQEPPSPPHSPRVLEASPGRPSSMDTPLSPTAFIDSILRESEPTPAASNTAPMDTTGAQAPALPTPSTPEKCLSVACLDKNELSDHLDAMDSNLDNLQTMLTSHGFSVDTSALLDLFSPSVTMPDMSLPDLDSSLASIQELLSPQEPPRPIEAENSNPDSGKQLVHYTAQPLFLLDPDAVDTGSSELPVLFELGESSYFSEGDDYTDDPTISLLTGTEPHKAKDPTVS

[3] = target: T2, Apoptotic protease-activating factor 1 (Homo sapiens, UniProt O14727); type: functional
T2 sequence (O14727 whole entry): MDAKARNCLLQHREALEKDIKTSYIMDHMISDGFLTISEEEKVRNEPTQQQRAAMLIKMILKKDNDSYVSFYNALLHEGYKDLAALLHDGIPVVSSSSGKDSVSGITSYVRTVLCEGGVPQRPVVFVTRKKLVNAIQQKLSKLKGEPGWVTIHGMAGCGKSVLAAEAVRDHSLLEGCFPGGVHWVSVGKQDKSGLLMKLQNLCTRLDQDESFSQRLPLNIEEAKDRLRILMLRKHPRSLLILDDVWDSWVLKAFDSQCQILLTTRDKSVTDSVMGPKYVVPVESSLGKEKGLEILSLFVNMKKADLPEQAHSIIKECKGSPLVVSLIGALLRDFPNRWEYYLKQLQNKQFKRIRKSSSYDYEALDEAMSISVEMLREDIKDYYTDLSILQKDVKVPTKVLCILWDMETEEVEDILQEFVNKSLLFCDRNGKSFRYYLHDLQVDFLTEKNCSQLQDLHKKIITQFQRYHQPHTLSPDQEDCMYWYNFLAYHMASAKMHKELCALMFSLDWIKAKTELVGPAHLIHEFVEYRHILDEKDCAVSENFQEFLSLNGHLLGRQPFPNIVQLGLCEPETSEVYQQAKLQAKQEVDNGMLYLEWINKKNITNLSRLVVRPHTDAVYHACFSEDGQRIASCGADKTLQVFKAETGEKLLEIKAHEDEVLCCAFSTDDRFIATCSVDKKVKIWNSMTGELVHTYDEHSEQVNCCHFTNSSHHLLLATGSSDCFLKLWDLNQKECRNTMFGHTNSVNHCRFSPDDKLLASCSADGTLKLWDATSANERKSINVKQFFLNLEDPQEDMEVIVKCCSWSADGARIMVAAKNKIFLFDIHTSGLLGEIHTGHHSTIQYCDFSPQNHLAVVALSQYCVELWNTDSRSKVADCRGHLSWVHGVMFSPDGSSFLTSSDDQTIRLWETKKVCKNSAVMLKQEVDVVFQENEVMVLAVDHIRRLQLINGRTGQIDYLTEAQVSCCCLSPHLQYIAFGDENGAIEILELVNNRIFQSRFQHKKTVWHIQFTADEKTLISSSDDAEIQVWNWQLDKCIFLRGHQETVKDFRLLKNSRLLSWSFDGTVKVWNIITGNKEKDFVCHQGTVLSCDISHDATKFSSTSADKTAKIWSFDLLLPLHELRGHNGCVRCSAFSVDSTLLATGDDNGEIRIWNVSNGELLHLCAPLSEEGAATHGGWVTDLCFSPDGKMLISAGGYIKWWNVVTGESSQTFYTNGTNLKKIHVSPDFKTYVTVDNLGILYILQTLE

[4] = target: T3, Ubiquitin-conjugating enzyme E2 N (Homo sapiens, UniProt P61088); type: functional;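 also: Dose-response confirmation in a TR-FRET assay detecting UBC13-driven polyubiquitin chain formation, inhibition measured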
T3 sequence (P61088 whole entry): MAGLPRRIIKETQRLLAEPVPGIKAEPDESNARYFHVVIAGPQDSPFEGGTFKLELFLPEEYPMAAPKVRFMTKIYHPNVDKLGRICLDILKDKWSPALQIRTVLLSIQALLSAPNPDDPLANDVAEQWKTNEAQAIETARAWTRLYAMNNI

[5] = test system: Vero; experiment: cells; type: functional, cell-based; settings: Chlorocebus sabaeus
[6] = test system: Vero; experiment: cells; type: functional; settings: Chlorocebus sabaeus
[7] = target: Cytochrome P450 2C9 (Homo sapiens, UniProt P11712)
[8] = target: T4, Corticotropin-releasing factor receptor 2/Corticotropin-releasing factor-binding protein (Homo sapiens, UniProt P24387+Q13324); experiment: Dose Response confirmation of uHTS hits for small molecule antagonists of the CRF-binding protein and CRF-R2 receptor complex.; type: functional; settings: read-out: IC50_Mean
T4 sequence (Q13324 whole entry): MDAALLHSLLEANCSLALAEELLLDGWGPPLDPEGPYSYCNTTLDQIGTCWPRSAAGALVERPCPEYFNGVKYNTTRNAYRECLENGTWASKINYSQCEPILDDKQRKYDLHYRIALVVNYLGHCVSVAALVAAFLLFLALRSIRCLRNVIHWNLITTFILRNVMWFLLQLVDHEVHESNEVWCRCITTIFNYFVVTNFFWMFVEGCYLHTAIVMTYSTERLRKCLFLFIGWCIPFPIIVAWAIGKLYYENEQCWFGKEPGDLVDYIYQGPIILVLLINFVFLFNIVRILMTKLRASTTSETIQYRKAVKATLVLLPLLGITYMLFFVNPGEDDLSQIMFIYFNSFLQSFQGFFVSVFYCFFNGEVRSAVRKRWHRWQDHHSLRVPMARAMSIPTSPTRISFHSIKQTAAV
T4 sequence (P24387 whole entry): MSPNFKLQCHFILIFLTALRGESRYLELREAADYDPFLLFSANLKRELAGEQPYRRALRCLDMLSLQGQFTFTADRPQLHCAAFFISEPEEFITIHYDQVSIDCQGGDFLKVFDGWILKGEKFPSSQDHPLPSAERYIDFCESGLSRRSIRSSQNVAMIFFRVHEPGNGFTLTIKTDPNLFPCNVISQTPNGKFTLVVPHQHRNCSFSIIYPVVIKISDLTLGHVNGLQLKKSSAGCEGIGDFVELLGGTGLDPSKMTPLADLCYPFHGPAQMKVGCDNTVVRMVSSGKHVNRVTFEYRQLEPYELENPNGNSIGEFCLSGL

[9] = target: T4, Corticotropin-releasing factor receptor 2/Corticotropin-releasing factor-binding protein; experiment: activators of CRF receptor 2 with binding protein – uHTS hits, confirmation (AID 602473); type: functional; settings: read-out: EC50_Mean
[10] = microbe, parasite or virus in culture; type: functional; settings: Mycobacterium tuberculosis
[11] = test system: HEK293; experiment: cells; settings: Homo sapiens
[12] = test system: HEK293; experiment: cells; settings: Homo sapiens; remark: listed apart in the source
[13] = target: T5, Protein RecA (Mycobacterium tuberculosis, UniProt P9WHJ3); experiment: Fluorescence Cell-Free Homogeneous Dose Retest to Identify Inhibitors of RecA-Intein Splicing Activity. [Related pubchem assays (depositor defined):AID2097, AID2223, AID489010, AID492950]; type: functional
T5 sequence (P9WHJ3 whole entry): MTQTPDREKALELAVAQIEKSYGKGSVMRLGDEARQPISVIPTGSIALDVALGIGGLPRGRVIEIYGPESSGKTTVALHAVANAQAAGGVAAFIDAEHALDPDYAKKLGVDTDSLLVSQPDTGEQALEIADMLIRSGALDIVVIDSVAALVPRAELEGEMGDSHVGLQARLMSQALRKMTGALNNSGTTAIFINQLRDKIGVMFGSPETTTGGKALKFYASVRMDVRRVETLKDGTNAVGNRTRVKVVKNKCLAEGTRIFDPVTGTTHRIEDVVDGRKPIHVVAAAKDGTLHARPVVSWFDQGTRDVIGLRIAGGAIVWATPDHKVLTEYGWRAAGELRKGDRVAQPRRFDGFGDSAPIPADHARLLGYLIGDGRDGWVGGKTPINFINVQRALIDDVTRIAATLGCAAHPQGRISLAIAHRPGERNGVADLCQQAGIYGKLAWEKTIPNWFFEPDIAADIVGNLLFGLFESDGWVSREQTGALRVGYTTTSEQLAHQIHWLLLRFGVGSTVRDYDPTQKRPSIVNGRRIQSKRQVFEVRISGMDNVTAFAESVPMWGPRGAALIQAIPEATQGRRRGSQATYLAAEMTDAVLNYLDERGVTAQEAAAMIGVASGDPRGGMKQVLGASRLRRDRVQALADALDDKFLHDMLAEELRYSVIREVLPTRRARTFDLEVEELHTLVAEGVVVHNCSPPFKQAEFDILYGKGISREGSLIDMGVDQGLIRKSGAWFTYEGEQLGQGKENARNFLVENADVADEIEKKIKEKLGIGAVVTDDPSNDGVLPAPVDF

[14] = target: T6, Replicative DNA helicase DnaB (Mycobacterium tuberculosis, UniProt P9WMR3); experiment: DnaB intein splicing inhibitors, dose response, biochemical, cell-free fluorescence (AID 449749); type: functional
T6 sequence (P9WMR3 whole entry): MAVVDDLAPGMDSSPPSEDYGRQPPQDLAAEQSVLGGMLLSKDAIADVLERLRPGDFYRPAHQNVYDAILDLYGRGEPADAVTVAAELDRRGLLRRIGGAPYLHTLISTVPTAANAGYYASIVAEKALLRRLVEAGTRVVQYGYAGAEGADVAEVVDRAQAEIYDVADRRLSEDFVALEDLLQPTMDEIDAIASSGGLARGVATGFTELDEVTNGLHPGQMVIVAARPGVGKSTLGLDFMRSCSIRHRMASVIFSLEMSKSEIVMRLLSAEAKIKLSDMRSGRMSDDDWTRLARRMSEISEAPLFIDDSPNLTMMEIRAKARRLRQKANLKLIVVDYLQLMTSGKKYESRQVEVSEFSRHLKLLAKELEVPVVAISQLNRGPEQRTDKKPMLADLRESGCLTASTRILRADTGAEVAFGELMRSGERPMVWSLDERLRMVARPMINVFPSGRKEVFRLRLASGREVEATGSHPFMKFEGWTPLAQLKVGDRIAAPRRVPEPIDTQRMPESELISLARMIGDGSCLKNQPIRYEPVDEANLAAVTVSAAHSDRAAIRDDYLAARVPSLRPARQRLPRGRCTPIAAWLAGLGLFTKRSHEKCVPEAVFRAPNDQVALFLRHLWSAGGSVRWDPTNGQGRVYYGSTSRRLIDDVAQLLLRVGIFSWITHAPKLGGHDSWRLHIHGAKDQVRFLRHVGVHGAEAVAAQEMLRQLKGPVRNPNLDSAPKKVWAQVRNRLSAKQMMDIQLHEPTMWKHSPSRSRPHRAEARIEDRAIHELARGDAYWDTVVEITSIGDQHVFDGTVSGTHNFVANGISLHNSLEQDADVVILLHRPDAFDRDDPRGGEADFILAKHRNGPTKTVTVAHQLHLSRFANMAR

[15] = target: SWI/SNF-related matrix-associated actin-dependent regulator of chromatin subfamily A member 2 (Homo sapiens, UniProt P51531); experiment: Luminescence-based cell-based high throughput dose response assay to identify activators of the function of SWI/SNF related, matrix associated, actin dependent regulator of chromatin, subfamily a, member 2 (SMARCA2, BRM).; type: functional
[16] = Counterscreen for activators of the function of SWI/SNF related, matrix associated, actin dependent regulator of chromatin, subfamily a, member 2 (SMARCA2, BRM): Luminescence-based cell-based high throughput dose response assay to identify non-selective compounds using the VP16 reporter assay.; type: functional
[17] = target: Heat shock protein HSP 90-alpha (Homo sapiens, UniProt P07900); type: functional, organism-based

SWI/SNF-related matrix-associated actin-dependent regulator of chromatin subfamily A member 2, sequence (P51531 whole entry): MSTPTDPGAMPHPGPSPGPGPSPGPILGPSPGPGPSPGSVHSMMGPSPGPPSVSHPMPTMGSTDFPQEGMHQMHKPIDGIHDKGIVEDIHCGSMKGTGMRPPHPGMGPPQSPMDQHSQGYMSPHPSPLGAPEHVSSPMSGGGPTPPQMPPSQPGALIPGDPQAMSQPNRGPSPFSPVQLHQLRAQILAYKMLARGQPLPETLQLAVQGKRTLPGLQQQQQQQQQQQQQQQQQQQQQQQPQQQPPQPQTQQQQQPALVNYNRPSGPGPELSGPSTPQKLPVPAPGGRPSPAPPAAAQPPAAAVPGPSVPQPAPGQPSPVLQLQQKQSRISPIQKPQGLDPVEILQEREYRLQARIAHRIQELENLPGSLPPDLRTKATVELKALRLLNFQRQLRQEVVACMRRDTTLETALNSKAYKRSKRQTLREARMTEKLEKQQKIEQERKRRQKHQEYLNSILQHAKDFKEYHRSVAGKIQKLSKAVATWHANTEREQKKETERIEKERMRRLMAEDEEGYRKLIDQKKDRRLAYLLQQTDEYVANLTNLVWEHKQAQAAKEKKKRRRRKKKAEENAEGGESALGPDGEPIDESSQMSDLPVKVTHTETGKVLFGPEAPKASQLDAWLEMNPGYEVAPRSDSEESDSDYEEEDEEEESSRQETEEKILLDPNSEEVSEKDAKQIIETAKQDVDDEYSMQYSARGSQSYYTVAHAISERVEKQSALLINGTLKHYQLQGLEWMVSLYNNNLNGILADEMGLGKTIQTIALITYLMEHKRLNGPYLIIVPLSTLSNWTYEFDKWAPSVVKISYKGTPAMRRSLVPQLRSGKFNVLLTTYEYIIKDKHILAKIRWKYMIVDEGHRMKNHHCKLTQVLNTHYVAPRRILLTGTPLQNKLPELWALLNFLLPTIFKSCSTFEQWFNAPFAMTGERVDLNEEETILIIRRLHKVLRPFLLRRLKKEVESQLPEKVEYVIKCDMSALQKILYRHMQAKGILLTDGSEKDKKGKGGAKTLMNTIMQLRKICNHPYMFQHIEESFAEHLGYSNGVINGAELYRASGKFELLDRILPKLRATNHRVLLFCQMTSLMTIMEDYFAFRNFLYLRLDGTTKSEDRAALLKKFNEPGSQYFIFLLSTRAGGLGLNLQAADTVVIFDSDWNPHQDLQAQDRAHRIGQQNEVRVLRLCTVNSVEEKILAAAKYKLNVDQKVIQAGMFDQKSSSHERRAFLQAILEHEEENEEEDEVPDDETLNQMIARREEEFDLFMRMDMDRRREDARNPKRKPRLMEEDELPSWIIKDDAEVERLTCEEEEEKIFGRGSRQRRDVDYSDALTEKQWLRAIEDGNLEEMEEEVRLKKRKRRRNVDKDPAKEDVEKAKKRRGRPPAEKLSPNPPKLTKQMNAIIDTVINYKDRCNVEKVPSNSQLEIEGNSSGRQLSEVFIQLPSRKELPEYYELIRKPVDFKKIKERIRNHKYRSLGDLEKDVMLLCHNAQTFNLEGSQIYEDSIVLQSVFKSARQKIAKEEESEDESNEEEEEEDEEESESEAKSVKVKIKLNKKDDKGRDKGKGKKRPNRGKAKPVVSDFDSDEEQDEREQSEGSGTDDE
Glucose-6-phosphate 1-dehydrogenase, sequence (P11413 whole entry): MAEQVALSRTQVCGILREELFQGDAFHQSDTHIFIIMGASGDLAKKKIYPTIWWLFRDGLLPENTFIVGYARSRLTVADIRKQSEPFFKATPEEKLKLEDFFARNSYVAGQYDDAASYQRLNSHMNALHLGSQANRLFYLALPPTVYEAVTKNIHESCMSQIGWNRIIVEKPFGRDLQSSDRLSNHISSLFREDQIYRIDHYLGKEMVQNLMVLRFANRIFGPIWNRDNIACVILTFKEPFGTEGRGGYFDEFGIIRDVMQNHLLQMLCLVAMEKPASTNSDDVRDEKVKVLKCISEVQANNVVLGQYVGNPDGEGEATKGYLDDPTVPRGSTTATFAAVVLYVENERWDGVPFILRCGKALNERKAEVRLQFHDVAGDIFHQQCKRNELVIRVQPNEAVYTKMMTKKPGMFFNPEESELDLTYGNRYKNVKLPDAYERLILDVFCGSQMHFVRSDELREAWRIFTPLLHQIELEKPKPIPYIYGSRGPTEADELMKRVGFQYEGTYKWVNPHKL
Cytochrome P450 2C9, sequence (P11712 whole entry): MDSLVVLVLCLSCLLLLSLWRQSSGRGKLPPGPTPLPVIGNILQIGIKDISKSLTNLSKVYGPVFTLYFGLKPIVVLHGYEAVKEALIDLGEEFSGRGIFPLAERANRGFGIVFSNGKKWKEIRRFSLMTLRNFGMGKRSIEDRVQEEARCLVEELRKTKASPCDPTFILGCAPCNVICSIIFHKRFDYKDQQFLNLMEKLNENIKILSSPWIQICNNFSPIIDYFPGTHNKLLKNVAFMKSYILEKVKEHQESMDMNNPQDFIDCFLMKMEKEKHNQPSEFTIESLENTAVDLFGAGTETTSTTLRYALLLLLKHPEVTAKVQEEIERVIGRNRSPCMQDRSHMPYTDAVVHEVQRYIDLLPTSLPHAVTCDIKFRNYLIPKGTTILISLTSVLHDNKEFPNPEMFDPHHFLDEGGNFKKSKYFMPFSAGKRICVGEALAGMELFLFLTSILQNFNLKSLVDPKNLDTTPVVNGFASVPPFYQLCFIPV

Nc1c(C(=O)Nc2ccc(F)cc2)sc(=S)n1-c1ccccc1F
IC50 [1]: > 80 µM (inactive)

O=C(Nc1nnc(S(=O)(=O)N2CCCCCC2)s1)c1cccc(Br)c1
EC50 [2]: > 195 µM (not active)
IC50 [1]: 78.9 µM (inactive)

COc1ccc(C(CNC(=O)COc2c(C)cc(C)cc2C)N2CCOCC2)cc1 (stereo not given)
IC50 [3]: > 100 µM (inactive)
IC50 [4]: > 20 µM (inactive)

O=C(Oc1ccc2ccccc2c1Br)N1CCCCCC1
IC50 [5]: 4.26 µM (active)
CC50 [6]: > 25 µM (active)
AC50 [7]: 25.1 µM (inconclusive)

Cc1oc2c(c1C(=O)O)C(=O)c1ccccc1C2=O
IC50 [3]: 11.4 µM (active)

COC(=O)CN1C(c2ccc(Cl)cc2)=Nc2ccc(Cl)cc2C1c1ccccc1 (stereo not given)
IC50 [8]: > 47.1 µM (inactive)
EC50 [9]: > 53 µM (inactive)
CC50 [10]: > 40 µM (active)
EC50 [11]: > 59.6 µM (inactive)
EC50 [12]: > 59.6 µM (inactive)
EC50 [13]: 55.9 µM (inconclusive)
AC50 [14]: 4.24 µM (active)

N#C/C(=C/c1cccs1)c1nc2ccccc2[nH]1
EC50 [15]: > 91.1 µM (inactive)
EC50 [16]: > 91.1 µM (inactive)

O=C1CCCCC1Nc1ccc2ccccc2c1 (stereo not given)
IC50 [5]: > 12.5 µM (active)

O=C(CCCc1ccccc1)NCc1ccccc1
EC50 [15]: > 91.3 µM (inactive)
EC50 [16]: > 91.3 µM (inactive)

O=C(Nc1nc(-c2cccc(Br)c2)cs1)Oc1ccccc1
EC50 [15]: > 91.2 µM (inactive)
EC50 [16]: > 91.2 µM (inactive)

CC(C)N1CCN(c2ccc(OC[C@H]3CO[C@](Cn4cncn4)(c4ccc(Cl)cc4Cl)O3)cc2)CC1 [TERCONAZOLE]
CC50 [6]: 22.1 µM (active)
AC50 [17]: 1.41 µM (active)
